Legend:
AgETHR-A = assay: Calcium mobilization assay (aequorin luminescence) with heterologously expressed AgETHR-A; format: cell-based, Anopheles gambiae; conditions: for agonistic activity normalized by the activity of AgETH1 / concentration of maximum response (at the level over) / lowest activating concentration (receptor not activated lower than) / response/sensitivity of AgETHR-A to own ETHs (in words) / response of AgETHR-A (in words): AgETHR-A; for agonistic activity normalized by the activity of AgETH1: CHO cells, normalized to AgETH1; for EC50: AgETHR-A in CHO cells, calcium mobilization, luminescence integrated 20 s, at least three replicates; for concentration of maximum response (at the level over) / lowest activating concentration (receptor not activated lower than) / response/sensitivity of AgETHR-A to own ETHs (in words): dose-response; for response of AgETHR-A (in words): 0.1 and 1 μm
From the text: (§1) We tested different synthetic insect neuropeptides with PRXamide, including four groups: ETH, pyrokinin1/DH, pyrokinin2/PBAN, and CAPA. The following synthetic peptides were utilized to investigate selectivity and sensitivity of each AgETHR-A and AgETHR-B; AgETH1 (SESPGFIKLSKSVPRIa, NEOBiolab, United States), AgETH2 (GDLENFFLKQSKSVPRIa, GenScript United States Inc.), TcETH1 (ENYVLKAAKNVPRIa), TcETH2 (FFMKASKSVPRIa), TcPK1-1 (PGANSGGMWFGPRLa, GenScript United States Inc.), TcPK1-2 ([…]a), TcCAPA-1([…]a, PepMicCo. Ltd., Suzhou, China), TcCAPA-2 (RIGKMVSFPRIa); MsPBAN (TRTRYFSPRLa), Pyrokinin2-1 (HVVNFTPRLa, Biomatik, United States), DmETH1 (DDSSPGFFLKITKNVPRLa) and DmETH2 (GENFAIKNLKTIPRIa).
(§2) The functional analysis of the AgETH receptors was performed based on the previous description with modifications ([Park et al., 2003]; [Kim et al., 2014]; [Jiang et al., 2016]). The expression vector pcDNA 3.1 (+) (Invitrogen, Carlsbad, CA, United States), including the open reading frame (ORF) for each AgETHR-A and AgETHR-B, was transiently transfected into the CHO cells with a codon-optimized human apoaequorin-containing plasmid ([Vernon and Printen, 2002]) by using TransIT®-2020 (Mirus, Madison, WI, United States). […] The Kozak sequence for the mammalian Kozak consensus sequence ‘GCCACC’ at the 5' ends of each ORF for each AgETHR-A and AgETHR-B was […], allowing for successful functional expression. After approximately 24–28 h, transfected cells were harvested and prepared for the calcium mobilization assay by incubating in assay media DMEM/F12, including coelenterazine h (final concentration 5 μm; AAT Bioquest, Sunnyvale, CA, United States). Different concentrations of synthetic neuropeptides, including AgETH1, AgETH2, and ETH-related neuropeptides (PRXamides), were prepared in a 96-well plate, upon which the transfected cells (~15,000 cells in 50 μl) were applied. The value of luminescence, the indicator or calcium mobilization, was integrated over time for 20 s and normalized to the treatment of either 0.1 or 1 μm of each AgETH1 and AgETH2 positive control response and negative control background values.

AgETHR-B = assay: Calcium mobilization assay (aequorin luminescence) with heterologously expressed AgETHR-B; format: cell-based, Anopheles gambiae; conditions: for agonistic activity normalized by the activity of AgETH2 / concentration of maximum response (at the level over) / lowest activating concentration (receptor not activated lower than) / response/sensitivity of AgETHR-B to own ETHs (in words) / response of AgETHR-B relative to other ETHs (in words): AgETHR-B; for agonistic activity normalized by the activity of AgETH2: CHO cells, normalized to AgETH2; for EC50: AgETHR-B in CHO cells, calcium mobilization, luminescence integrated 20 s, at least three replicates; for higher sensitivity of AgETHR-B than AgETHR-A: AgETHR-B vs. AgETHR-A, calcium mobilization assay; for concentration of maximum response (at the level over) / lowest activating concentration (receptor not activated lower than) / response/sensitivity of AgETHR-B to own ETHs (in words): dose-response; for response of AgETHR-B relative to other ETHs (in words): 0.1 μm
From the text: as §1, §2

TcETHR-B = conditions: out of 70 peptides, ref Jiang et al., 2015; cited from earlier work

| Substance | agonistic activity normalized by the activity of AgETH1 (AgETHR-A; 0.1 μM peptide) | agonistic activity normalized by the activity of AgETH1 (AgETHR-A; 1 μM peptide) | agonistic activity normalized by the activity of AgETH2 (AgETHR-B; 0.1 μM peptide) | agonistic activity normalized by the activity of AgETH2 (AgETHR-B; 1 μM peptide) | response of AgETHR-A (in words) (AgETHR-A) | also measured |
| --- | --- | --- | --- | --- | --- | --- |
| TPHESSVPNERNDDSKETYFWFGPRLa [TcPK-1-2, synthetic insect neuropeptide with PRXamide] | -13% | -3% | 1% | -2% |  |  |
| EPKEPKRNKLASVYALTPSLRVa [TcCAPA-1, synthetic insect neuropeptide, CAPA (PepMicCo)] | -22% | -4% | 0% | -2% |  |  |
| GDLENFFLKQSKSVPRIa [AgETH2, Anopheles gambiae ecdysis triggering hormone 2, synthetic (GenScript)] | 24% | 69% | 100% | 100% |  | EC50 (AgETHR-A): 703 nM; concentration of maximum response (at the level over) (AgETHR-A): over 100 um; lowest activating concentration (receptor not activated lower than) (AgETHR-A): ≥ 10 nm; response/sensitivity of AgETHR-A to own ETHs (in words) (AgETHR-A): dose-dependent responses; response/sensitivity of AgETHR-A to own ETHs (in words) (AgETHR-A; listed as AgETH-2): sensitive; EC50 (AgETHR-B): 2.2 nM; higher sensitivity of AgETHR-B than AgETHR-A (AgETHR-B): 320 times; concentration of maximum response (at the level over) (AgETHR-B): over 100 nm; lowest activating concentration (receptor not activated lower than) (AgETHR-B): ≥ 0.03 nm; response/sensitivity of AgETHR-B to own ETHs (in words) (AgETHR-B): dose-dependent responses; response/sensitivity of AgETHR-B to own ETHs (in words) (AgETHR-B; listed as AgETH-2): sensitive |
| DDSSPGFFLKITKNVPRLa [DmETH1, D. melanogaster ETH] | 138% | 102% | 105% | 98% | responded |  |
| PGANSGGMWFGPRLa [TcPK-1-1, synthetic insect neuropeptide with PRXamide (GenScript)] | -18% | -2% | 1% | -3% |  |  |
| TRTRYFSPRLa [MsPBAN, synthetic insect neuropeptide with PRXamide] | -21% | -3% | 0% | -2% |  |  |
| HVVNFTPRLa [Pyrokinin2-1, synthetic insect neuropeptide with PRXamide (Biomatik)] | -21% | -4% | 1% | -1% |  |  |
| FFMKASKSVPRIa [TcETH2, T. castaneum ETH] | 57% | 86% | 109% | 107% | responded | agonist activity (in words) (TcETHR-B): agonist activity |
| RIGKMVSFPRIa [TcCAPA-2, synthetic insect neuropeptide, CAPA] | -24% | -4% | 0% | 2% |  |  |
| GENFAIKNLKTIPRIa [DmETH2, D. melanogaster ETH] | -14% | 2% | 83% | 102% | small or no response | response of AgETHR-B relative to other ETHs (in words) (AgETHR-B): relatively lower responses |
| SESPGFIKLSKSVPRIa [AgETH1, Anopheles gambiae ecdysis triggering hormone 1, synthetic (NEOBiolab)] | 100% | 100% | 97% | 98% |  | EC50 (AgETHR-A): 127 nM; concentration of maximum response (at the level over) (AgETHR-A): over 10 um; lowest activating concentration (receptor not activated lower than) (AgETHR-A): ≥ 3 nm; response/sensitivity of AgETHR-A to own ETHs (in words) (AgETHR-A): dose-dependent responses; response/sensitivity of AgETHR-A to own ETHs (in words) (AgETHR-A; listed as AgETH-1): sensitive; EC50 (AgETHR-B): 4.5 nM; higher sensitivity of AgETHR-B than AgETHR-A (AgETHR-B): 28 times; concentration of maximum response (at the level over) (AgETHR-B): over 100 nm; lowest activating concentration (receptor not activated lower than) (AgETHR-B): ≥ 0.1 nm; response/sensitivity of AgETHR-B to own ETHs (in words) (AgETHR-B): dose-dependent responses; response/sensitivity of AgETHR-B to own ETHs (in words) (AgETHR-B; listed as AgETH-1): sensitive |
| ENYVLKAAKNVPRIa [TcETH1, T. castaneum ETH] | -11% | 32% | 81% | 104% | small or no response | response of AgETHR-B relative to other ETHs (in words) (AgETHR-B): relatively lower responses; agonist activity (in words) (TcETHR-B): agonist activity |
